Converted amounts (≈) assume the structure as drawn. Where two headings read alike, the source gives them in different places.
Experiments:
[1] = Kinetic Solubility Analysis (CLND); type: physicochemical; settings: 26 °C, kinetic from dmso stock
Procedure: Kinetic Solubility Analysis (CLND) Buffer Preparation:
0.1N HCl: Hydrochloric acid, 0.1N standardized solution.
1×PBS, 7.4: Phosphate Buffered Saline solution 10×, PBS 50 mL was added to approximately 450 mL HPLC grade H2O. The volume of the solution was then adjusted to 500 mL for a total dilution factor of 1:10 and a final PBS concentration of IX.
Kinetic Solubility from DMSO Stocks:
The final DMSO concentration is 1.0% and maximum theoretical compound concentration is 100 μM (assuming stock concentration of 10 mM). The filter plate was sealed. […] The collection plate was sealed for analysis. Filtrates were injected into the nitrogen detector for quantification.
The equimolar nitrogen response of the detector was calibrated using standards which spanned the dynamic range of the instrument from […] nitrogen. The filtrates were quantified with respect to this calibration curve. The calculated solubility values were corrected for background nitrogen present in the DMSO and the media used to prepare the samples.

[2] = system: HIV-1 (IIIB) in MT-4 cells; experiment: MT-4 HIV Assay; type: cell-based
Procedure: Compounds were tested in a high-throughput 384-well assay format for their ability to inhibit the replication of HIV-1 (IIIB) in MT-4 cells. Compounds were serially diluted (1:3) in DMSO on 384-well polypropylene plates and further diluted 200-fold into complete RPMI media (10% FBS, 1% P/S) using the Biotek Micro Flow and Agilent ECHO acoustic dispenser. Each plate contained up to 8 test compounds, with negative (No Drug Control) and 5 μM AZT positive controls. MT-4 cells were pre-infected with 10 μL of either RPMI (mock-infected) or a fresh 1:250 dilution of an HIV-1 (IIIB) concentrated virus stock. Infected and uninfected MT-4 cells were further diluted in complete RPMI media and added to each plate using a Micro Flow dispenser. After 5 days incubation in a humidified and temperature controlled incubator (37° C.), Cell Titer Glo (Promega) was added to the assay plates to quantify the amount of luciferase. EC50 values were defined as the compound concentration that causes a 50% decrease in luminescence signal, and were calculated using a sigmoidal dose-response model to generate curve fits.

[3] = 0.1N HCl, pH 1, simulated gastric fluid, read-out: Solubility, HCl, pH 1.0, RT
[4] = PBS, pH 7.4, aqueous buffer, read-out: Solubility, PBS, pH 7.4, RT
[5] = Human immunodeficiency virus 1, MT4, 120 h, HIV-1 (IIIB) replication in MT-4 cells, 5 days incubation, Cell Titer Glo, read-out: EC50

Structure (SMILES)	solubility at 24 h [1, 3] [µM]	solubility at 24 h [1, 4] [µM]	EC50 [2, 5] [nM]	EC50 ([2]; Human immunodeficiency virus 1, IIIB, MT4, 120 h) [nM]
COC(=O)N[C@H](C(=O)N[C@@H](Cc1ccc(C#Cc2ccc(N3CC4CCC(C3)N4C3COC3)nc2)cc1)[C@H](CN(Cc1c(F)cc(-c2ccn(C(F)F)n2)cc1F)NC(=O)[C@@H](NC(=O)OC)C(C)(C)C(F)(F)F)OC(=O)OCOP(=O)(O)O)C(C)(C)C(F)(F)F [Example 13, methyl ((5S,10S,11S,14S)-8-(4-(1-(difluoromethyl)-1H-pyrazol-3-yl)-2,6-difluorobenzyl)-16,16,16-trifluoro-15,15-dimethyl-11-(4-((6-(8-(oxetan-3-yl)-3,8-diazabicyclo[3.2.1]octan-3-yl)pyridin-3-yl)ethynyl)benzyl)-3,6,13-trioxo-10-((((phosphonooxy)methoxy)carbonyl)oxy)-5-(1,1,1-trifluoro-2-methylpropan-2-yl)-2-oxa-4,7,8,12-tetraazahexadecan-14-yl)carbamate]	67.4 (≈ 88.2 µg/mL)	< 1	–	–
COC(=O)N[C@H](C(=O)N[C@@H](Cc1ccc(C#Cc2cnc(N3CC4CCC(C3)N4C3COC3)nc2)cc1)[C@H](CN(Cc1c(F)cc(-c2ccn(C(F)F)n2)cc1F)NC(=O)[C@@H](NC(=O)OC)C(C)(C)C(F)(F)F)OC(=O)[C@H](C(C)C)N(C)C)C(C)(C)C(F)(F)F [Example 4, (2S,3S)-1-(1-(4-(1-(difluoromethyl)-1H-pyrazol-3-yl)-2,6-difluorobenzyl)-2-((S)-4,4,4-trifluoro-2-((methoxycarbonyl)amino)-3,3-dimethylbutanoyl)hydrazinyl)-4-(4-((2-(8-(oxetan-3-yl)-3,8-diazabicyclo[3.2.1]octan-3-yl)pyrimidin-5-yl)ethynyl)phenyl)-3-((S)-4,4,4-trifluoro-2-((methoxycarbonyl)amino)-3,3-dimethylbutanamido)butan-2-yl dimethyl-L-valinate]	99.2 (≈ 127 µg/mL)	< 1	5710	–
COC(=O)N[C@H](C(=O)N[C@@H](Cc1ccc(C#Cc2cnc(N3CC4CCC(C3)N4C3COC3)nc2)cc1)[C@H](CN(Cc1c(F)cc(-c2ccn(C(F)F)n2)cc1F)NC(=O)[C@@H](NC(=O)OC)C(C)(C)C(F)(F)F)OC(=O)CN(C)C)C(C)(C)C(F)(F)F [Example 10, (2S,3S)-1-(1-(4-(1-(difluoromethyl)-1H-pyrazol-3-yl)-2,6-difluorobenzyl)-2-((S)-4,4,4-trifluoro-2-((methoxycarbonyl)amino)-3,3-dimethylbutanoyl)hydrazinyl)-4-(4-((2-(8-(oxetan-3-yl)-3,8-diazabicyclo[3.2.1]octan-3-yl)pyrimidin-5-yl)ethynyl)phenyl)-3-((S)-4,4,4-trifluoro-2-((methoxycarbonyl)amino)-3,3-dimethylbutanamido)butan-2-yl dimethylglycinate]	79.3 (≈ 98.4 µg/mL)	< 1	–	–
COC(=O)N[C@H](C(=O)N[C@@H](Cc1ccc(C#Cc2cnc(N3CC4CCC(C3)N4C3COC3)nc2)cc1)[C@H](CN(Cc1c(F)cc(-c2ccn(C(F)F)n2)cc1F)NC(=O)[C@@H](NC(=O)OC)C(C)(C)C(F)(F)F)OC(C)=O)C(C)(C)C(F)(F)F [Example 3, (5S,10S,11S,14S)-8-(4-(1-(difluoromethyl)-1H-pyrazol-3-yl)-2,6-difluorobenzyl)-11-(4-((2-(8-(oxetan-3-yl)-3,8-diazabicyclo[3.2.1]octan-3-yl)pyrimidin-5-yl)ethynyl)benzyl)-3,6,13,16-tetraoxo-5,14-bis(1,1,1-trifluoro-2-methylpropan-2-yl)-2,17-dioxa-4,7,8,12,15-pentaazaoctadecan-10-yl acetate]	25.2	< 1	603	–
COC(=O)N[C@H](C(=O)N[C@@H](Cc1ccc(C#Cc2cnc(N3CC4CCC(C3)N4C3COC3)nc2)cc1)[C@H](CN(Cc1c(F)cc(-c2ccn(C(F)F)n2)cc1F)NC(=O)[C@@H](NC(=O)OC)C(C)(C)C(F)(F)F)OC(=O)[C@@H](N)C(C)C)C(C)(C)C(F)(F)F [Example 8, (2S,3S)-1-(1-(4-(1-(difluoromethyl)-1H-pyrazol-3-yl)-2,6-difluorobenzyl)-2-((S)-4,4,4-trifluoro-2-((methoxycarbonyl)amino)-3,3-dimethylbutanoyl)hydrazinyl)-4-(4-((2-(8-(oxetan-3-yl)-3,8-diazabicyclo[3.2.1]octan-3-yl)pyrimidin-5-yl)ethynyl)phenyl)-3-((S)-4,4,4-trifluoro-2-((methoxycarbonyl)amino)-3,3-dimethylbutanamido)butan-2-yl L-valinate]	90 (≈ 113 µg/mL)	< 1	102	–
COC(=O)N[C@H](C(=O)N[C@@H](Cc1ccc(C#Cc2cnc(N3CC4CCC(C3)N4C3COC3)nc2)cc1)[C@H](CN(Cc1c(F)cc(-c2ccn(C(F)F)n2)cc1F)NC(=O)[C@@H](NC(=O)OC)C(C)(C)C(F)(F)F)OC(=O)CCC[N+](C)(C)C)C(C)(C)C(F)(F)F [Example 7, (5S,10S)-8-(4-(1-(difluoromethyl)-1H-pyrazol-3-yl)-2,6-difluorobenzyl)-N,N,N-trimethyl-10-((1 S)-2-(4-((2-(8-(oxetan-3-yl)-3,8-diazabicyclo[3.2.1]octan-3-yl)pyrimidin-5-yl)ethynyl)phenyl)-1-((S)-4,4,4-trifluoro-2-((methoxycarbonyl)amino)-3,3-dimethylbutanamido)ethyl)-3,6,2-trioxo-5-(1,1,1-trifluoro-2-methylpropan-2-yl)-2,11-dioxa-4,7,8-triazapentadecan-15-aminium 2,2,2-trifluoroacetate]	–	–	–	247
COC(=O)N[C@H](C(=O)N[C@@H](Cc1ccc(C#Cc2cnc(N3CC4CCC(C3)N4C3COC3)nc2)cc1)[C@H](CN(Cc1c(F)cc(-c2ccn(C(F)F)n2)cc1F)NC(=O)[C@@H](NC(=O)OC)C(C)(C)C(F)(F)F)OC(=O)[C@@H](N)CCCCN)C(C)(C)C(F)(F)F [Example 9, (2S,3S)-1-(1-(4-(1-(difluoromethyl)-1H-pyrazol-3-yl)-2,6-difluorobenzyl)-2-((S)-4,4,4-trifluoro-2-((methoxycarbonyl)amino)-3,3-dimethylbutanoyl)hydrazinyl)-4-(4-((2-(8-(oxetan-3-yl)-3,8-diazabicyclo[3.2.1]octan-3-yl)pyrimidin-5-yl)ethynyl)phenyl)-3-((S)-4,4,4-trifluoro-2-((methoxycarbonyl)amino)-3,3-dimethylbutanamido)butan-2-yl L-lysinate]	86.8 (≈ 111 µg/mL)	6.8 (≈ 8.73 µg/mL)	20.6	–
